Data from publication PMC6930622, “Validation of an HPLC Method for the Simultaneous Quantification of Metabolic Reaction Products Catalysed by CYP2C11 Enzymes in Rat Liver Microsomes: In Vitro Inhibitory Effect of Salicylic Acid on CYP2C11 Enzyme” (Molecules, 2019).

Molecular target: T1, CYP2C11 (Rattus norvegicus, UniProt P08683)
T1 sequence (P08683 1-500): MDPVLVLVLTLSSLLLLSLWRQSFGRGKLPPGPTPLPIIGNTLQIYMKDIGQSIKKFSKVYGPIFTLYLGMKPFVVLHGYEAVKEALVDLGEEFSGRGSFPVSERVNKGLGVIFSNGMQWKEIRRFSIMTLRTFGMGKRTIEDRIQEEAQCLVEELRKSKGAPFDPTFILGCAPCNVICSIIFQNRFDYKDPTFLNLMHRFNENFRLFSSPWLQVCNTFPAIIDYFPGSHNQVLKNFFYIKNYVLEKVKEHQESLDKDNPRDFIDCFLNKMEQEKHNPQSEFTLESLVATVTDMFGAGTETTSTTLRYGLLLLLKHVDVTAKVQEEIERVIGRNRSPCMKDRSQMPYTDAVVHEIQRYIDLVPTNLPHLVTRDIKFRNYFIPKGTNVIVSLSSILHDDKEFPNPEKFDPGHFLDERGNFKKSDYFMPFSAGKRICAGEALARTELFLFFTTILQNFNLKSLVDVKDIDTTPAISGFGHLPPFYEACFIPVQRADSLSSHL
Experiment: testosterone […]α-hydroxylation in pooled male Sprague-Dawley rat liver microsomes, HPLC; Lineweaver-Burk
Type: biochemical

In the case of `O=C(O)c1ccccc1O` [salicylic acid], the Ki is reported as 84.6 ± 2.67 µM.
